≈ marks a conversion by molar mass, not a printed value.
Key:
[1] = Inhibitory concentration against human esophagus cancer cell line at 72 hours; format: functional, cell-based; details: cancer cell lines
HeLa = assay: Inhibitory concentration against human cervical carcinoma cell line at 48 hours; format: functional, cell-based

| SMILES | IC50 [1] | IC50 (HeLa) |
| --- | --- | --- |
| CC(=O)O[C@@H]1COC2C1OCC21Nc2ccc(C)cc2[C@]2(Nc3ccc(C)cc3)C3OC[C@@H](OC(C)=O)C3OC12 (some centres not stated) | 135 µg/mL (≈ 245 µM) | 150 µg/mL (≈ 272 µM) |
| COc1ccc(N[C@]23c4cc(OC)ccc4NC4(COC5[C@H](O)CO[C@@H]54)C2OC2C3OC[C@H]2O)cc1 (some centres not stated) | > 1000 µg/mL | 648 µg/mL (≈ 1300 µM) |
| O[C@@H]1COC2C1OCC21Nc2ccccc2[C@]2(Nc3ccccc3)C3OC[C@@H](O)C3OC12 (some centres not stated) | > 1000 µg/mL | > 1000 µg/mL |

Now from value to compound:

| IC50 [1] | IC50 (HeLa) | SMILES |
| --- | --- | --- |
| 240 µg/mL (≈ 514 µM) | > 1000 µg/mL | Cc1ccc(N[C@]23c4cc(C)ccc4NC4(COC5C4OC[C@H]5O)C2OC2C3OC[C@H]2O)cc1 (some centres not stated) |
| 78 µg/mL (≈ 166 µM) | > 1000 µg/mL | Oc1ccc(NC23c4cc(O)ccc4NC4(COC5C4OC[C@H]5O)C2OC2C3OC[C@H]2O)cc1 (some centres not stated) |
| 95 µg/mL (≈ 204 µM) | 276 µg/mL (≈ 592 µM) | Cc1cccc(NC23c4ccc(C)cc4NC4(COC5C4OC[C@H]5O)C2O[C@H]2C3OC[C@H]2O)c1 (some centres not stated) |

Source: ChEMBL document CHEMBL1142649, “Asymmetric synthesis of novel tetrahydroquinoline derivatives with a sugar building block and their bioactivities” (Bioorg Med Chem Lett, 2005)
